From ChEMBL document CHEMBL5728856, “Anilinopyrimidines as haematopoietic progenitor kinase 1 (HPK1) inhibitors” (2021) come the findings set out here.

For orientation: IC50 means the midpoint of a concentration-inhibition curve.

This assay addresses Mitogen-activated protein kinase kinase kinase kinase 1 (Homo sapiens, UniProt Q92918). The assay is described as follows: Enzymatic Activity Assay: The enzymatic activity of Wild Type HPK1 (MAP4K1) Kinase was measured in the presence or absence of an inhibitor compound of the present disclosure by preparation of a reaction mixture containing a fluorescein tagged peptide (2 micromolar final concentration), ATP (Adenosine Triphosphate, 500 micromolar final concentration) and Wild Type kinase (6 nM final concentration) in a buffer system comprising 50 mM HEPES (Buffer), 3 mM MgCl2, 5% w/v Trehalose, 0.01% Brij 35 (Detergent), 0.1% Pluronic F127 (Surfactant), 0.1 mM EDTA (Ethylenediaminetetraacetic acid), 0.1 mM EGTA (ethylene glycol-bis(β-aminoethyl ether)-N,N,N′,N′-tetraacetic acid) and 1 mM DTT (Dithiothreitol) and at a pH of 7.4. The reactions were quenched by the addition of EDTA to a final concentration of 25 mM. A Caliper EZ reader was used to measure the extent of substrate to product conversion.The peptide substrate used in the HPK1 assay was designed based on the amino acid sequence surrounding serine residue 376 of SLP76-Lymphocyte cytosolic protein 2 (a known intracellular substrate of HPK1). […]. It is filed as cell-based.

Mitogen-activated protein kinase kinase kinase kinase 1, sequence (Q92918 whole entry): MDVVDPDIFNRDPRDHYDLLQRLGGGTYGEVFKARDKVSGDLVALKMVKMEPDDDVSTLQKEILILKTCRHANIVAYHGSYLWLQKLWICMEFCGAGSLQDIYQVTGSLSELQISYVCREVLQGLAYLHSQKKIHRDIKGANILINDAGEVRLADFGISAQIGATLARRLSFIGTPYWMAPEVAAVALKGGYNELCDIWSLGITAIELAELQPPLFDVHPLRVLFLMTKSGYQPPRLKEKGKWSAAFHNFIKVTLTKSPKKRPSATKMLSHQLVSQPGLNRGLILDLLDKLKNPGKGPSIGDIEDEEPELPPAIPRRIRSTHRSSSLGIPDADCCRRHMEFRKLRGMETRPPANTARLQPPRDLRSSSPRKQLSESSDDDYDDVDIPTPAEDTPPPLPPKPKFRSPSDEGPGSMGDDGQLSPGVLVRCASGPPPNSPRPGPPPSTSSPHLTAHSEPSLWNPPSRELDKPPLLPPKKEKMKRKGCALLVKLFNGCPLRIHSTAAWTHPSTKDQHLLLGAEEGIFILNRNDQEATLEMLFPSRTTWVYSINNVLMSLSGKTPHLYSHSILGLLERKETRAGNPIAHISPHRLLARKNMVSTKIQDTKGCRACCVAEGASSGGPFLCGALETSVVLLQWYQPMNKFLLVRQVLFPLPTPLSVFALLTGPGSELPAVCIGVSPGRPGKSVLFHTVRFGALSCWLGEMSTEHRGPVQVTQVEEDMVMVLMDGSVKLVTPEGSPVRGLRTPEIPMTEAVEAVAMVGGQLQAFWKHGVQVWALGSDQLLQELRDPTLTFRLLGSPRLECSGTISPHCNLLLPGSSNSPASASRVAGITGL

Take `CN1CCc2cc(Nc3ncc(Cl)c(Nc4ccccc4P(C)(C)=O)n3)c(Cl)cc2C1`: the half-inhibitory concentration (IC50) is < 5 nM.
